In brackets after ≈: the same amount, converted by molar mass.
Experiments:
A549 = test: Cytotoxicity against human A549 cells incubated for 48 hrs by MTT assay; format: functional, cell-based; settings: A549, 48 h
SW480 = test: Cytotoxicity against human SW480 cells incubated for 48 hrs by MTT assay; format: functional, cell-based; settings: SW480, 48 h
MCF7 = test: Cytotoxicity against human MCF7 cells incubated for 48 hrs by MTT assay; format: functional, cell-based; settings: MCF7, 48 h
Tobacco mosaic virus [1] = test: Antiviral activity against TMV U1 infected on Nicotiana glutinosa leaves smeared with virus before compound treatment assessed as virus infection curative effect by measuring local lesion numbers after 3 to 4 days post virus inoculation at 200 ug/ml by half-leaf method; format: functional; settings: U1, in Nicotiana glutinosa
Tobacco mosaic virus [2] = test: Antiviral activity against TMV U1 infected on 20 mins compound treated fresh leaves from 5 to 6 growth stage Nicotiana glutinosa assessed as inhibition of virus growth at 50 ug/ml cultured at 25 degC for 72 hrs by half-leaf method; format: functional; settings: U1, in Nicotiana glutinosa
SMMC-7721 = test: Cytotoxicity against human SMMC7721 cells incubated for 48 hrs by MTT assay; format: functional, cell-based; settings: SMMC-7721, 48 h
Tobacco mosaic virus [3] = test: Antiviral activity against 30 mins compound pre-treated TMV U1 infected on Nicotiana glutinosa leaves assessed as virus inactivation effect by measuring local lesion numbers after 3 to 4 days post virus inoculation at 50 ug/ml by half-leaf method; format: functional; settings: U1, in Nicotiana glutinosa
HL-60 = test: Cytotoxicity against human HL60 cells incubated for 48 hrs by MTT assay; format: functional, cell-based; settings: HL-60, 48 h
Tobacco mosaic virus [4] = test: Antiviral activity against TMV U1 infected on compound smeared Nicotiana glutinosa leaves assessed as virus infection protective effect by measuring local lesion numbers after 3 to 4 days post virus inoculation at 200 ug/ml by half-leaf method; format: functional; settings: U1, in Nicotiana glutinosa
Tobacco mosaic virus [5] = test: Antiviral activity against 30 mins compound pre-treated TMV U1 infected on Nicotiana glutinosa leaves assessed as virus inactivation effect by measuring local lesion numbers after 3 to 4 days post virus inoculation at 10 ug/ml by half-leaf method relative to untreated control; format: functional; settings: U1, in Nicotiana glutinosa
Tobacco mosaic virus [6] = test: Antiviral activity against 30 mins compound pre-treated TMV U1 infected on Nicotiana glutinosa leaves assessed as virus inactivation effect by measuring local lesion numbers after 3 to 4 days post virus inoculation at 50 ug/ml by half-leaf method relative to untreated control; format: functional; settings: U1, in Nicotiana glutinosa
Tobacco mosaic virus [7] = test: Antiviral activity against 30 mins compound pre-treated TMV U1 infected on Nicotiana glutinosa leaves assessed as virus inactivation effect by measuring local lesion numbers after 3 to 4 days post virus inoculation at 40 ug/ml by half-leaf method relative to untreated control; format: functional; settings: U1, in Nicotiana glutinosa
Tobacco mosaic virus [8] = test: Antiviral activity against 30 mins compound pre-treated TMV U1 infected on Nicotiana glutinosa leaves assessed as virus inactivation effect by measuring local lesion numbers after 3 to 4 days post virus inoculation by half-leaf method relative to untreated control; format: functional, organism-based
Tobacco mosaic virus [9] = test: Antiviral activity against 30 mins compound pre-treated TMV U1 infected on Nicotiana glutinosa leaves assessed as virus inactivation effect by measuring local lesion numbers after 3 to 4 days post virus inoculation at 30 ug/ml by half-leaf method relative to untreated control; format: functional; settings: U1, in Nicotiana glutinosa
Tobacco mosaic virus [10] = test: Antiviral activity against 30 mins compound pre-treated TMV U1 infected on Nicotiana glutinosa leaves assessed as virus inactivation effect by measuring local lesion numbers after 3 to 4 days post virus inoculation at 20 ug/ml by half-leaf method relative to untreated control; format: functional; settings: U1, in Nicotiana glutinosa
Tobacco mosaic virus [11] = test: Antiviral activity against 30 mins compound pre-treated TMV U1 infected on Nicotiana glutinosa leaves assessed as virus inactivation effect by measuring local lesion numbers after 3 to 4 days post virus inoculation at 5 ug/ml by half-leaf method relative to untreated control; format: functional; settings: U1, in Nicotiana glutinosa

| SMILES | IC50 (A549) | IC50 (SW480) | IC50 (MCF7) | inhibition at 200 µg/mL (Tobacco mosaic virus [1]) | inhibition at 50 µg/mL (Tobacco mosaic virus [2]) | IC50 (SMMC-7721) | inhibition at 50 µg/mL (Tobacco mosaic virus [3]) | IC50 (HL-60) | inhibition at 200 µg/mL (Tobacco mosaic virus [4]) | inhibition at 10 µg/mL (Tobacco mosaic virus [5]) | inhibition at 50 µg/mL (Tobacco mosaic virus [6]) | inhibition at 40 µg/mL (Tobacco mosaic virus [7]) | IC50 (Tobacco mosaic virus [8]) | inhibition at 30 µg/mL (Tobacco mosaic virus [9]) | inhibition at 20 µg/mL (Tobacco mosaic virus [10]) | inhibition at 5 µg/mL (Tobacco mosaic virus [11]) |
| --- | --- | --- | --- | --- | --- | --- | --- | --- | --- | --- | --- | --- | --- | --- | --- | --- |
| C=C1[C@@H]([C@@]2(C)C=CC(=O)OC(C)(C)[C@@H]2CC(=O)OC)[C@@H](OC(C)=O)[C@H](OC(C)=O)[C@@]2(C)[C@H](C(=O)O)C[C@H]3O[C@]132 | > 10 µM | > 10 µM | > 10 µM | 27.3% | 30.7% | > 10 µM | 32.5% | > 10 µM | 30.5% |  |  |  |  |  |  |  |
| CC(=O)O[C@@H]1[C@@H]2[C@@]3(C)[C@@H](OC(C)=O)CC(=O)OC(C)(C)[C@@H]3CC(=O)[C@@]2(C)[C@@]23O[C@@H]2C[C@@H](c2ccoc2)[C@]3(C)[C@H]1OC(C)=O | > 10 µM | > 10 µM | > 10 µM | 57.6% | 97.6% | > 10 µM | 95.3% | > 10 µM | 60.2% | 28.7% | 93.9% | 91.4% | 20.4 µg/mL (≈ 34 µM) | 80.3% | 64.9% | 9.7% |
| CC(=O)O[C@H]1C[C@@H]2[C@@]3(C)[C@@H](OC(C)=O)CC(=O)OC(C)(C)[C@@H]3CC[C@@]2(C)C2=CC[C@@H](c3ccoc3)[C@@]21C | > 10 µM | > 10 µM | > 10 µM | 29.9% | 89% | > 10 µM | 81.8% | > 10 µM | 36.4% | 20.3% | 83.6% | 73.7% | 27.7 µg/mL (≈ 54 µM) | 63.4% | 38.1% |  |
| C/C=C(\C)C(=O)O[C@H]1C[C@@H](OC(C)=O)[C@@]2(C)CO[C@H]3[C@@H](O)[C@@]4(C)C5=C(C)[C@H](c6ccoc6)C[C@@H]5O[C@H](OC)C[C@@H]4[C@]1(C)[C@@H]32 | > 10 µM | > 10 µM | > 10 µM | 59.6% | 97.9% | > 10 µM | 91.4% | > 10 µM | 63.8% | 20.5% | 92.8% | 79.8% | 25.8 µg/mL (≈ 43.1 µM) | 68.2% | 39.7% |  |
| C/C=C(\C)C(=O)O[C@H]1C[C@@H](OC(C)=O)[C@@]2(C)CO[C@H]3[C@@H](O)[C@@]4(C)C5=C(C)[C@H](c6ccoc6)C[C@H]5O[C@@H](OC)C[C@@H]4[C@]1(C)[C@@H]32 | > 10 µM | > 10 µM | > 10 µM | 44.9% | 98.5% | > 10 µM | 88.9% | > 10 µM | 63.8% | 16.4% | 86.9% | 70.3% | 28.1 µg/mL (≈ 46.9 µM) | 63.5% | 30.7% | 6.3% |
| C/C=C(\C)C(=O)O[C@H]1C[C@@H](OC(C)=O)[C@@]2(C)CO[C@H]3[C@@H](O)[C@@]4(C)C5=C(C)[C@H](c6ccoc6)C[C@@H]5OC=C[C@@H]4[C@]1(C)[C@@H]32 | > 10 µM | > 10 µM | > 10 µM | 20.1% | 49.3% | > 10 µM | 38.5% | > 10 µM | 24.7% |  |  |  |  |  |  |  |
| CC(=O)O[C@H]1[C@@H](OC(C)=O)[C@@]2(C)C3=CC[C@@H](c4ccoc4)[C@]3(C)CC[C@@H]2[C@@]2(C)[C@@H](O)C[C@@H](OC(C)=O)C(C)(C)[C@H]12 | > 10 µM | > 10 µM | > 10 µM | 23.6% | 33.6% | > 10 µM | 30.2% | > 10 µM | 25.3% |  |  |  |  |  |  |  |
| C/C=C(\C)C(=O)O[C@H]1C[C@@H](OC(C)=O)[C@@]2(C)CO[C@H]3[C@@H](O)[C@]4(C)[C@H](CC(OC)O[C@H]5C[C@@H](c6ccoc6)C(C)[C@H]54)[C@]1(C)[C@@H]32 (stereo partly drawn) | > 10 µM | > 10 µM | > 10 µM | 53.6% | 43.9% | > 10 µM | 31.5% | > 10 µM | 50% |  |  |  |  |  |  |  |
| CO[C@H]1C[C@H]2[C@](C)(C3=C(C)[C@H](c4ccoc4)C[C@@H]3O1)[C@H](O)[C@@H]1OC[C@]3(C)[C@H](OC(C)=O)C[C@H](OC(=O)c4ccccc4)[C@@]2(C)[C@@H]13 | > 10 µM | > 10 µM | > 10 µM | 19.3% | 41.5% | > 10 µM | 30.9% | > 10 µM | 15% |  |  |  |  |  |  |  |
| COC(=O)C[C@@H]1C(C)=C/C(=C\C2=C[C@@H](OC(C)=O)[C@H](OC(C)=O)[C@]3(C)C2=CC[C@H]3c2ccoc2)C(=O)OC1(C)C | > 10 µM | > 10 µM | > 10 µM | 27.9% | 30.1% | > 10 µM | 27.6% | > 10 µM | 28.3% |  |  |  |  |  |  |  |
| CC(=O)O[C@@H]1[C@H](O)[C@H]2C(C)(C)[C@H](OC(C)=O)C[C@H](OC(C)=O)[C@]2(C)[C@H]2CC[C@]3(C)C(=CC[C@H]3c3ccoc3)[C@]12C | > 10 µM | > 10 µM | > 10 µM | 15.4% | 18.5% | > 10 µM | 21.2% | > 10 µM | 19.4% |  |  |  |  |  |  |  |
| C/C=C(\C)C(=O)O[C@@H]1[C@@H]2OC[C@]3(C)[C@H](OC(C)=O)C[C@H](O)[C@@](C)([C@@H]23)[C@H]2CCO[C@H]3C[C@@H](C4=CCOC4=O)C(C)=C3[C@]12C [CHISONIMBOLININ F] | > 10 µM | > 10 µM | > 10 µM | 20.5% | 44.5% | > 10 µM | 34.1% | > 10 µM | 17.3% |  |  |  |  |  |  |  |
| C=C1[C@@H]([C@@]2(C)C=CC(=O)O[C@](C)(COC(C)=O)[C@@H]2CC(=O)OC)[C@@H](OC=O)[C@H](OC(=O)[C@H](O)[C@H](C)CC)[C@@]2(C)[C@@H](c3ccoc3)C[C@H]3O[C@]132 [MOMBASOL] | > 10 µM | > 10 µM | > 10 µM | 28.1% | 47.6% | > 10 µM | 38.9% | > 10 µM | 31.6% |  |  |  |  |  |  |  |
| CNCC(=O)N[C@@H](CO)C(=O)N[C@H]1[C@H](O)[C@@H](O)[C@H](n2ccc(N)nc2=O)O[C@@H]1C(N)=O [NINGNANMYCIN] |  |  |  | 40.7% | 69.2% |  | 58.9% |  | 50.2% | 17.9% | 57.3% | 38.6% | 44.6 µg/mL (≈ 101 µM) | 33.9% | 20.8% |  |
| CC(=O)O[C@H]1C(=O)[C@@]2(C)[C@H]([C@H](OC(=O)c3ccccc3)[C@]3(O)C[C@H](OC(=O)[C@H](O)[C@@H](NC(=O)c4ccccc4)c4ccccc4)C(C)=C1C3(C)C)[C@]1(OC(C)=O)CO[C@@H]1C[C@@H]2O [PACLITAXEL] | < 0.008 µM | < 0.008 µM | < 0.008 µM |  |  | < 0.008 µM |  | < 0.008 µM |  |  |  |  |  |  |  |  |
| C=C1[C@@H]([C@@]2(C)[C@@H](OC(C)=O)CC(=O)O[C@](C)(COC(C)=O)[C@@H]2C(=O)OC)[C@@H](OC=O)[C@H](OC(=O)[C@H](O)[C@H](C)CC)[C@@]2(C)[C@H](c3ccoc3)CC(=O)[C@]12O [PRIEURIANIN] | 1 µM | 1.2 µM | 2.2 µM | 41.6% | 75.9% | 0.73 µM | 68.1% | 4.8 µM | 45.7% | 3.5% | 70.5% | 39.3% | 44.4 µg/mL (≈ 59.3 µM) | 35.6% | 11.7% |  |
